Source: patent US8846690B2, “Heterocyclic carboxylic acid derivatives having a 2,5-substituted oxazolopyrimidine ring” (Sanofi, priority 2010, dated 2014)

Target: T1, human Edg-1 receptor (Homo sapiens, UniProt P21453)
T1 construct: FLAG (N); expressed in transfected cells; membrane preparation
Experiment: GTP-γ-S assay using human Edg-1 receptors (scintillation proximity assay, CHO Flp-In membrane preparation)
Type: biochemical
Details: test compound 10 μM; high control 10 μM S1P regarded as 100% activation; background-corrected; triplicate
Excerpt: Determination of the Pharmacological Activity A) GTP-γ-S Assay Using Human Edg-1 Receptors
In order to determine the Edg-1 receptor activation by the compounds of the invention, a GTP-γ-S (guanosine 5′-[y-thio]triphosphate) assay for G-protein coupled receptor binding based on the scintillation proximity assay principle was used, employing a cell membrane preparation from a CHO Flp-In cell line which constitutively overexpresses the human Edg-1 receptor.
A membrane preparation was obtained by standard methods from the afore-described CHO Flp-In cell line constitutively overexpressing the human Edg-1 receptor. Briefly, the cryopreserved cells were taken in culture and grown until confluency in T175 cell culture flasks (Becton Dickinson, cat. no. 35 5001). Cell culture was stopped by washing with calcium-free phosphate-buffered saline (PBS; Gibco, cat. no. 14190), and cells were harvested with a rubber-policeman in 4° C. cold and calcium-free PBS supplemented with a protease inhibitor cocktail (complete protease inhibitor; Roche, cat. no. 1697498; 1 tablet per 50 ml) and subsequently centrifuged at 4° C. for 15 min at 1100×g (Heraeus Minifuge T). For cell lysis, the pellet was resuspended in a 4° C. cold hypotonic buffer consisting of 5 mM HEPES (Sigma-Aldrich, cat. no. H-0981), 1 mM EDTA (disodium salt; Merck, cat. No. 8418) supplemented with protease inhibitor cocktail (as above) in which cells were stored for another 15 min on ice. After lysis, cells were centrifuged at 4° C. for 10 min at 400×g (Heraeus Minifuge T). The pellet was disrupted in a Dounce homogenizer, diluted with the supernatant of the previous centrifugation and subsequently centrifuged at 4° C. for 10 min at 500×g (Heraeus Minifuge T) in order to separate nuclei and still intact cells from the membranes mainly present in the supernatant. The supernatant was then diluted in hypotonic buffer and centrifuged (Beckmann, Avanti J251) at approximately 18600×g for 2 h at 4° C. […] Protein concentration of the membrane preparation was determined in a sample by means of a commercial protein assay (Bio-Rad, DC Protein Assay, cat. nos. 500-0113, 500-0114, 500-0115).
The Edg-1 membrane preparation obtained in (b) was employed in a commercially available scintillation proximity assay (SPA) kit for G-protein coupled receptor binding from Amersham Biosciences/GE Healthcare (code RPNQ0210), in which ligand-induced binding of ^35S-radiolabled GTP-γ-S to the receptor-containing membrane, which is bound to scintillation beads, stimulates the emission of light and allows to quantify the in vitro activity of the Edg-1 agonistic compound. […]

T1 sequence (P21453 whole entry): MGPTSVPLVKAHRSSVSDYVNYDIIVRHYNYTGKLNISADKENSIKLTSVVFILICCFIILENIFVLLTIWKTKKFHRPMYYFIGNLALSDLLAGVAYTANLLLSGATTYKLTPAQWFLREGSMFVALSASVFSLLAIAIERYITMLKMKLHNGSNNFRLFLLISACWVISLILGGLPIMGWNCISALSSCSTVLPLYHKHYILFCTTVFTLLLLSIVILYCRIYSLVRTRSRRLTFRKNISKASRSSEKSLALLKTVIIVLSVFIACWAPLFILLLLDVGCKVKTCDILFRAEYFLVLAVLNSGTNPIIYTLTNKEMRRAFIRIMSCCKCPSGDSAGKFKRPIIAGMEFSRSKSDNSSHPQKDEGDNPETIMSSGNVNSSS

| Structure (SMILES) | Edg-1 receptor activation in percent of the activation by 10 μM S1P (% Activation) [%] |
| --- | --- |
| Cc1cc(-c2nc3cnc(Oc4ccccc4F)nc3o2)cc(C)c1OCC(=O)N1CCC[C@H]1C(=O)O [Example 1, (S)-1-(2-{4-[5-(2-Fluoro-phenoxy)-oxazolo[5,4-d]pyrimidin-2-yl]-2,6-dimethyl-phenoxy}-acetyl)-pyrrolidine-2-carboxylic acid] | 115 |
| Cc1cc(-c2nc3cnc(Oc4ccccc4F)nc3o2)cc(C)c1OC(C)C(=O)N1CCC[C@H]1C(=O)O (stereo partly drawn) [Example 2, (S)-1-(2-{4-[5-(2-Fluoro-phenoxy)-oxazolo[5,4-d]pyrimidin-2-yl]-2,6-dimethyl-phenoxy}-propionyl)-pyrrolidine-2-carboxylic acid] | 93 |
| O=C(O)[C@@H]1CCCN1C(=O)CCc1ccc(-c2nc3cnc(Oc4ccccc4F)nc3o2)cc1 [Example 4, (S)-1-(3-{4-[5-(2-Fluoro-phenoxy)-oxazolo[5,4-d]pyrimidin-2-yl]-phenyl}-propionyl)-pyrrolidine-2-carboxyl is acid] | 103 |
| O=C(O)[C@@H]1CCCN1C(=O)/C=C/c1ccc(-c2nc3cnc(Oc4ccccc4F)nc3o2)cc1 [Example 3, (S)-1-((E)-3-{4-[5-(2-Fluoro-phenoxy)-oxazolo[5,4-d]pyrimidin-2-yl]-phenyl}-acryloyl)-pyrrolidine-2-carboxylic acid] | 82 |
